Test results reported in patent US11103548B2, “Treatment of endometriosis, angiogenesis and/or endometrial lesion growth” (priority 2013, dated 2021).
No end group written: not given here. *: point of attachment. FITC = O=C1OC2(c3ccc(O)cc3Oc3cc(O)ccc32)c2ccc(NC(=S)*)cc21

Legend:
SNCG = biological target: T1, SNCG (Homo sapiens, UniProt O76070); test: co-immunoprecipitation (co-IP) of peptide with SNCG in MCF7-SNCG cells; assay type: binding; conditions: FITC tagged peptide, 8 hour after treatment, IP with anti-SNCG antibody, western blot with anti-FITC antibody
T1 construct: expressed in transfected cells; host or cells: MCF7-SNCG cells
T1 sequence (O76070 whole entry): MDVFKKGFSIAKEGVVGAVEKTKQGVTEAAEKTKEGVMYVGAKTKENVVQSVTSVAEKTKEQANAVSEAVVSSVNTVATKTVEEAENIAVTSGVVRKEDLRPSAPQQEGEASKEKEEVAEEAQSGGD
Protocol: In vivo binding of ST011 to SNCG was examined in co-immunoprecipitation (co-IP) experiments (See FIG. 1). MCF7-SNCG cells were treated with FITC tagged […] (TAT)-ST011 (SEQ ID NO: 10) (lane 1 of FIG. 1), or FITC tagged YGRKKRRQRRR (TAT) alone (SEQ ID NO: 11) (lane 2 of FIG. 1) or no treatment control (lane 3 of FIG. 1). 8 hour after treatment, cell lysates were prepared and IP with anti-SNCG antibody was conducted. The presence of TAT-ST011 in SNCG IP complexes obtained from different treated cells was detected by western blot using anti-FITC antibody. […] Thus, FIG. 1 provides further evidence that SNCG is capable of immunoprecipitating TAT-ST011.

[1] = tested on: human endometriotic lesions; test: mouse xenograft model of endometriosis, gross observation of lesion growth and vascularization; assay type: in vivo, mice; conditions: 20 mg/kg daily intraperitoneal for 21 days, necropsy one week after treatment, versus saline
Protocol: Gross observation of endometriotic lesion growth and vascularization in vivo was performed using an animal model. […] The peritoneal cavity of the mice was exposed using surgical tools and the endometriotic lesions were located manually.
A mouse xenograft model was developed using Rag2^−/−/I12rg^−/− double knockout mice on a BalbC background.
Since human estrogen is important for the growth of human endometriotic lesions the mice (n=12) had 60-day release 13-estradiol 17-acetate pellets (15 mg/pellet) (Innovative Research of America, Sarasota, Fla., USA) subcutaneously implanted. The mice were anaesthetized with isofluorane (Pharmaceutical Partners of Canada, Richmond Hill, ON, Canada).
Five days after the implantation of the estrogen 5 pellet, eutopic endometrium obtained from hysterectomy and endometrial biopsies performed at Kingston General Hospital was implanted in the peritoneal cavity of the mice. The obtained endometrium was cut into equal pieces and washed with PBS. The pieces of endometrium were kept in PBS on ice until the surgeries were performed. The mice were anaesthetized in an isofluorane chamber and a small incision was made in their abdomen. Two to three lesions were adhered on the left side of the peritoneal cavity using Vetbond tissue adhesive (3M, St. Paul, Minn., USA) and one or two pieces were dropped freely in the cavity. […]

CRL 7566 cells = test: intracellular permeability by fluorescent microscopy; assay type: cell-based; conditions: 20 micro molar FITC tagged peptide, after 6 hours
Protocol: To further examine the utility of the ST011 peptide as a therapeutic tool against angiogenesis, endometriosis and/or endometrial lesion growth, this peptide was further examined to observe its intracellular permeability in endometrial cells. For these experiments, GYGRKKRRQRRR (TAT) tagged GNSALHVASQHG (ST011) (SEQ ID NO: 10) and a control peptide GYGRKKRRQRRR (TAT CTL; SEQ ID NO: 11) were chemically synthesized. Each peptide contained FITC on its N-terminal end. These peptides were dissolved in 2% DMSO in PBS (pH 7.3) and applied directly on the Petri dish containing model cells (CRL 7566 or HUVECs) at required concentrations. Active internalization of peptide was observed using fluorescent microscopy. Three independent experiments were performed with duplicates of each condition. Model cell line for endometriosis, CRL 7566 cells (FIG. 2) received 20 micro molar FITC tagged TAT-ST011. After 6 hours cells were examined under fluorescent microscope.

HUVECs [2] = test: in vitro angiogenic tube formation on gel matrix; assay type: cell-based
Protocol: Next, effect of TAT-ST011 peptide GNSALHVASQHG (SEQ ID NO: 2) on angiogenesis and tube formation of HUVEC cell was evaluated.
Extracellular matrix gel solution (Cell biolabs inc, San Diego, Calif., USA) had been thawed overnight at 4° C. and approximately […] of ECM gel solution was added to each well of a 96 well plate. The plate was incubated at 37° C. for 1 hour. HUVECs were trypsinized from culture and approximately 20,000 cells were added per well to the ECM containing 96 well plate. Each well was treated with […] of TAT-P12 at a concentration of 600 ng/mL, 300 ng/mL, 150 ng/mL, 5 ng/mL or 2.5 ng/mL. PBS was used as a control. The tube formation was visualized using a spinning disc confocal microscope and the images were stacked together using ImageJ.

HUVECs [3] = test: WST-1 proliferation assay; assay type: cell-based; conditions: 600 ng/mL to 2.5 ng/mL, 48 hours of treatment, PBS control
Protocol: Endothelial cells are an integral part of blood vessels and the proliferation of endothelial cells is extremely important for angiogenesis. Therefore, to assess the role of α-synuclein in endothelial cell proliferation, HUVECs were plated and treated with various concentrations of TATST011 peptide GNSALHVASQHG (SEQ ID NO: 2) ranging from 600 ng/mL to 2.5 ng/mL using PBS as a control. In order to measure the effect of TAT-ST011 peptide GNSALHVASQHG (SEQ ID NO: 2) on HUVEC proliferation a WST-1 proliferation assay was performed.
HUVECs and epithelial cells were trypsinized, suspended in cultured medium and counted. Approximately 10,000 cells per well were seeded onto a 96 well plate. After allowing 24 hours for attachment in 37° C., the cells were treated with either 600 ng/mL, 300 ng/mL, 150 ng/mL, 5 ng/mL or 2.5 ng/mL of TAT-P12 using phosphate buffer saline (PBS, (Sigma Chemical Co., St. Louis, Mo., USA) as a control. The drug was suspended in RPMI. The plates were incubated in 37° C. for 24 or 48 hours after which 10 μL of WST-1 (Roche, Laval, QC, Canada) was added to each well. The plate was then incubated in 37° C. for another 4 hours. The absorbance of the wells was measured at a wavelength of 490 nm or at 510 nm.

fertility of the animals = test: fertility by mating in humanized animal models of endometriosis after treatment; assay type: in vivo; conditions: mating after endometriosis is inhibited and treatment is stopped
Protocol: The ability of ST011 to inhibit endometriosis without effecting fertility can be confirmed in, for example, animal model of endometriosis. For these experiments, humanized animal models of endometriosis first can be treated with ST011 and once endometriosis is inhibited and treatment is stopped, fertility of the animals is tested by mating.

Row | Substance | co-precipitation with SNCG (binding to SNCG) (SNCG) | endometriotic lesion growth [1] | vascularization of the lesions [1] | internalization of peptide into endometrial cells (CRL 7566 cells) | morphology of the HUVECs (cell lysis) (HUVECs [2]; 300 ng/mL and 600 ng/mL) | concentration that inhibited tube formation and also changed the morphology of the HUVECs (HUVECs [2]; HUVECs on gel matrix) | tube formation / branching of HUVECs (HUVECs [2]; various concentrations (600 to 2.5 ng/mL), confocal microscopy) | proliferation of HUVECs (HUVECs [3]) | effect on fertility of the animals (fertility of the animals)
1 | GYGRKKRRQRRR (TAT) tagged GNSALHVASQHG (ST011) [TAT-ST011] | co-precipitate with SNCG | inhibited growth of lesion | prevented the formation of blood vessels to the lesions | capable of going inside endometrial cells | caused the cells to lyse | ≥ 5 ng/mL | dose dependent inhibition of tube formation | dose dependently decreased the proliferation of HUVECs | 
2 | Ac-GNSALHVASQHG-NH2 [ST011 peptide, GNSALHVASQHG] |  |  |  |  |  |  |  |  | no effect of ST011 peptide on the fertility
3 | GYGRKKRRQRRR ({FITC}-GYGRKKRRQRRR) [TAT alone, control peptide … (TAT CTL, reference compound] | not TAT alone is found to co-precipitate with SNCG |  |  |  |  |  |  |  | 
